Key:
HIV-1 strain 92HT599 = assay: Antiviral activity: p24 estimation in MT2 cells infected with HIV-1 strain 92HT599; format: cell-based; conditions: for inhibition at 0.1 µM: Human immunodeficiency virus 1, 100 nM; for inhibition at 0.1 µM / inhibition at 1 µM: HIV-1 92HT599, p24, ~96 hours; for inhibition at 1 µM: Human immunodeficiency virus 1, 1000 nM; for IC50: Human immunodeficiency virus 1, HIV-1 92HT599, p24
Method in brief: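 MT2 cells infected with HIV-1 92HT599 (10 TCID50/30000 cells), ~30,000 cells/well, incubated ~96 h with test compound (DMSO ≤1%). Supernatant p24 quantified by kit; percent inhibition relative to vehicle controls.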

[1] = Single dose oral pharmacokinetic study; format: in vivo, mice; conditions: mouse, plasma; Mice oral PK @30 mg/kg (Table 3)
Method in brief: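 Mice or rats dosed orally at 30 mg/kg in a suitable vehicle (10 ml/kg). Retro-orbital blood on K3 EDTA at defined time points under light ether anaesthesia; plasma analysed by LC-MS-MS.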

in vitro = format: cell-based; conditions: human, Cytotoxicity % viability
Protocol: (§1) For cyto-toxicity assay the same amount of MT2 cells as in antiviral assay without virus was added to the 96 well plates. The cyto-toxicity was measured using MTT reagent in parallel with p24 estimation. The percent viability is calculated in comparison with vehicle control.

MT2 cells = assay: in vitro; format: cell-based; conditions: human, 1 µM
Protocol: as §1

Compound	inhibition at 0.1 µM (HIV-1 strain 92HT599) [%]	inhibition at 1 µM (HIV-1 strain 92HT599) [%]	IC50 (HIV-1 strain 92HT599) [nM]	AUC(0-t) [1] [µg·h/mL]	Cmax [1] [ng/mL]	Tmax [1] [h]	viability at 1 µM (in vitro) [%]	Cytotoxicity % viability (MT2 cells) [%]
C=C(C)[C@@H]1CC[C@]2(C(=O)N3CCC[C@H]3c3ncc(-c4ccccc4)[nH]3)CC[C@]3(C)[C@H](CC[C@@H]4[C@@]5(C)CC[C@H](OC(=O)CC(C)(C)C(=O)O)C(C)(C)[C@@H]5CC[C@]43C)[C@@H]12 [Compound 8, 2,2-dimethyl-4-oxo-4-((1R,3aS,5aR,5bR,7aR,9S,11aR,11bR,13aR,13bR)-5a,5b,8,8,11a-pentamethyl-3a-((S)-2-(5-phenyl-1H-imidazol-2-yl)pyrrolidine-1-carbonyl)-1-(prop-1-en-2-yl)icosahydro-1H-cyclopenta[a]chrysen-9-yloxy)butanoic acid]	100	100	12.9	143	11100	3.75	96	88
C=C(C)[C@@H]1CC[C@]2(C(=O)N3CCC[C@H]3c3ncc(-c4ccccc4)[nH]3)CC[C@]3(C)[C@H](CC[C@@H]4[C@@]5(C)CC[C@H](OC(=O)CC(C)(C)CC(=O)O)C(C)(C)[C@@H]5CC[C@]43C)[C@@H]12 [Compound 9, 3,3-dimethyl-5-oxo-5-((1R,3aS,5aR,5bR,7aR,9S,11aR,11bR,13aR,13bR)-5a,5b,8,8,11a-pentamethyl-3a-((S)-2-(5-phenyl-1H-imidazol-2-yl)pyrrolidine-1-carbonyl)-1-(prop-1-en-2-yl)icosahydro-1H-cyclopenta[a]chrysen-9-yloxy)pentanoic acid]	81	98	–	58	5460	6	100	99
C=C(C)[C@@H]1CC[C@]2(C(=O)N3CCC[C@H]3c3ncc(-c4cccnc4)[nH]3)CC[C@]3(C)[C@H](CC[C@@H]4[C@@]5(C)CC[C@H](OC(=O)CC(C)(C)C(=O)O)C(C)(C)[C@@H]5CC[C@]43C)[C@@H]12 [Compound 10, 2,2-dimethyl-4-oxo-4-((1R,3aS,5aR,5bR,7aR,9S,11aR,11bR,13aR,13bR)-5a,5b,8,8,11a-pentamethyl-1-(prop-1-en-2-yl)-3a-((S)-2-(5-(pyridin-3-yl)-1H-imidazol-2-yl)pyrrolidine-1-carbonyl)icosahydro-1H-cyclopenta[a]chrysen-9-yloxy)butanoic acid]	100	100	0.8	40.5	5840	1.13	82	81
C=C(C)[C@@H]1CC[C@]2(C(=O)N3CCC[C@H]3c3ncc(-c4cccnc4)[nH]3)CC[C@]3(C)[C@H](CC[C@@H]4[C@@]5(C)CC[C@H](OC(=O)CC(C)(C)CC(=O)O)C(C)(C)[C@@H]5CC[C@]43C)[C@@H]12 [Compound 11, 3,3-dimethyl-5-oxo-5-((1R,3aS,5aR,5bR,7aR,9S,11aR,11bR,13aR,13bR)-5a,5b,8,8,11a-pentamethyl-1-(prop-1-en-2-yl)-3a-((S)-2-(5-(pyridin-3-yl)-1H-imidazol-2-yl)pyrrolidine-1-carbonyl)icosahydro-1H-cyclopenta[a]chrysen-9-yloxy)pentanoic acid]	99	100	1.51	59.5	7620	1.25	80	84
CC(C)(CC(=O)O)CC(=O)O[C@H]1CC[C@]2(C)[C@H]3CC[C@@H]4[C@H]5[C@H](C6(C)CC6)CC[C@]5(C(=O)N5CCC[C@H]5c5ncc(-c6ccccc6)[nH]5)CC[C@@]4(C)[C@]3(C)CC[C@H]2C1(C)C [Compound 13, 3,3-dimethyl-5-oxo-5-((1R,3aS,5aR,5bR,7aR,9S,11aR,11bR,13aR,13bR)-5a,5b,8,8,11a-pentamethyl-1-(1-methylcyclopropyl)-3a-((S)-2-(5-phenyl-1H-imidazol-2-yl)pyrrolidine-1-carbonyl)icosahydro-1H-cyclopenta[a]chrysen-9-yloxy)pentanoic acid]	78	100	–	156	11100	4	74	72
C=C(C)[C@@H]1CC[C@]2(C(=O)N3CCC[C@H]3c3ncc(-c4ccccc4)[nH]3)CC[C@]3(C)[C@H](CC[C@@H]4[C@@]5(C)CC[C@H](OC(=O)[C@H]6C[C@@H](C(=O)O)C6(C)C)C(C)(C)[C@@H]5CC[C@]43C)[C@@H]12 [Compound 14]	94	100	15.3	171	11000	5	82	86

— US9637516B2, “Betulinic acid proline derivatives as HIV inhibitors” (HETERO RESEARCH FOUNDATION, priority 2012, dated 2017)
